In patent US9394299B2, “Rilyazine derivatives and compositions for the treatment of cancer” (Warner Babcock Institute for Green Chemistry, LLC, priority 2013, dated 2016):

Assays:
Format in all cases: cell-based, human
SK-MEL-28 (Melanoma) = assay: NCI single point 10 μM, SK-MEL-28; conditions: 10^−5 M
Description: (§1) The screening is a two-stage process, beginning with the evaluation of all compounds against 60 cell lines at a single dose of 10^−5 M.
(§2) The human tumor cell lines of the cancer screening panel are grown in RPMI 1640 medium containing 5% fetal bovine serum and 2 mM L-glutamine. Cells are inoculated into 96 well microtiter plates in 100 μL at plating densities ranging from 5,000 to 40,000 cells/well depending on the doubling time of individual cell lines. After cell inoculation, the microtiter plates are incubated at 37° C., 5% CO2, 95% air and 100% relative humidity for 24 h prior to addition of experimental drugs. […]
(§3) Following drug addition, the plates are incubated for an additional 48 h at 37° C., 5% CO2, 95% air, and 100% relative humidity. […] Bound stain is subsequently solubilized with 10 mM trizma base, and the absorbance is read on an automated plate reader at a wavelength of 515 nm. […]
(§4) For the 1-dose 60 cell testing, the Growth Percent is calculated for each cell line/drug combination from the absorbance measurement for the no-drug control (C), the absorbance at time zero (Tz) and the absorbance measurement after incubation of the cells in the presence of drug (Ti): Growth Percent=[(Ti−Tz)/(C−Tz)]×100 for cell line/drug combinations for which Ti≧Tz. […]

[1] = system: NCI-H322M (non-small cell lung cancer); assay: NCI five point dosing, NCI-H322M
Description: RL-4 was evaluated against the 60 cell panel at five concentration levels, 10^−8 M, 10^−7 M, 10^−6 M, 10^−5 M and 10^−4 M.
as §2, §3
The percentage growth is calculated at each of the five drug concentrations levels using the seven absorbance measurements, namely absorbance at time zero (Tz), absorbance of control after incubation (C), and absorbance of test sample after incubation in the presence of drug at each of the five concentration levels (Ti). The Growth Percent is calculated as it was for the 1 dose assay: Growth Percent=[(Ti−Tz)/(C−Tz)]×100 for cell line/drug combinations for which Ti≧Tz. […]

SN12C (Renal Cancer) = assay: NCI single point 10 μM, SN12C; conditions: 10^−5 M
Description: as §1, §2, §3, §4

TK-10 (Renal Cancer) = assay: NCI single point 10 μM, TK-10; conditions: 10^−5 M
Description: as §1, §2, §3, §4

MALME-3M (Melanoma) = assay: NCI single point 10 μM, MALME-3M; conditions: 10^−5 M
Description: as §1, §2, §3, §4

SK-MEL-5 (Melanoma) = assay: NCI single point 10 μM, SK-MEL-5; conditions: 10^−5 M
Description: as §1, §2, §3, §4

Structure (SMILES): S=c1c2ncccc2c(-c2ccccn2)nn1C1CCCCC1 [RL-4, 7-cyclohexyl-5-(pyridin-2-yl)pyrido[2,3-d]pyridazine-8(7H)-thione]
- Growth Percent (SK-MEL-28 (Melanoma)): 93.53%
- Growth Percent ([1]; 10^−4 M dose): 60%
- GI50 ([1]; Homo sapiens, five point dosing): > 100 µM
- Growth Percent (SN12C (Renal Cancer)): 95.87%
- Growth Percent (TK-10 (Renal Cancer)): 120.12%
- Growth Percent (MALME-3M (Melanoma)): 98.97%
- Growth Percent (SK-MEL-5 (Melanoma)): 7.87%
